Results on two compounds are retold here after patent US10704097B2, “Oxidative stress and cardiovascular disease events” (KATHOLIEKE UNIVERSITEIT LEUVEN, priority 2014, dated 2020).

Marks after values point to notes of the source that are not given here.

In experiment [1] the test system is DKO (LDL-R−/−×ob/ob) mice. The following applies: mean ± SD. Here is the method:
Breeding and genotyping of LDL-receptor deficient, leptin-deficient ob/ob, and DKO (LDL-R^−/−×ob/ob) mice, on the C57BL/6J background, were performed as previously described (72, 73).
To convert from mg/dL to mM, we divided glucose by 18 (=molecular weight), triglycerides by 89 and total cholesterol by 39. […] To determine glucose tolerance, glucose was measured in samples obtained by tail bleeding before and 15, 30, 60, 120 and 240 minutes after intraperitoneal administration of glucose (20% glucose solution; 2 g/kg). Plasma adiponectin […] were measured with specific mouse ELISA (R&D Systems).

Experiment [2] relates to Cox4i1. The experiment is described as follows: Cox4i1 gene expression in aorta of DKO mice (qPCR). The following applies: 12 weeks treatment, relative RNA expression, mean ± SD. Background: Real-time PCR tracks product formation cycle by cycle.
Procedure: (§1) Total RNA from monocytes, macrophages and vascular tissues was extracted with TRIzol reagent (Invitrogen) and purified on (mi)RNeasy Mini Kit columns (Qiagen). […] First-strand cDNA was generated from total RNA with the SuperScript VILO cDNA synthesis kit (Invitrogen). qPCR analysis was performed on a 7500 Fast Real-Time PCR system using Fast SYBRGreen master mix, according to the supplier protocols (Applied Biosystems). […] For each RNA and microRNA sample, the expression levels of the RNAs as described herein were compared and normalized to reference housekeeping RNAs or microRNAs. […] We compared them with non-treated DKO at 24 weeks. […] Food and water were available ad libitum. […] All mice were sacrificed by Nembutal overdose at the age of 24 weeks (72, 73).
The subject of experiment [3] is Cox1. The experiment in a line: Cox1 gene expression in aorta of DKO mice (qPCR). The note with it: 12 weeks treatment, relative RNA expression, mean ± SD.
Procedure: as §1
The test system of experiment [4] is Tfam. The experiment is described as follows: Tfam gene expression in aorta of DKO mice (qPCR). The note with it: 12 weeks treatment, relative RNA expression, mean ± SD.
Procedure: as §1
Setting [5] is: DKO mice at 24 weeks, 12 weeks treatment in diet.

Consider `CN(CCOc1ccc(CC2SC(=O)NC2=O)cc1)c1ccccn1` (centres unmarked) [Rosiglitazone, rosiglitazone], for which the Weight in experiment [1] (DKO mice at 24 weeks, 12 weeks treatment in diet (fenofibrate 50, rosiglitazone 10 mg/kg/day)) is recorded as 55 ± 3.6*^/$ g. For the same compound, in experiment [1] (DKO mice at 24 weeks, 12 weeks treatment in diet, fasting plasma), the Insulin is listed as 69 ± 42 ^ mU/L. In addition, in experiment [1] (setting [5]), the “TG (triglyceride)” value is reported as 192 ± 96 ^ mg/dl and the “Total C (cholesterol)” value is reported as 700 ± 139*^/$$ mg/dl. Moreover, the Glucose in experiment [1] (DKO mice at 24 weeks, 12 weeks treatment in diet, overnight fast) was 88 ± 18*^/$/£ mg/dl. Further, in experiment [1] (DKO mice at 24 weeks, 12 weeks treatment in diet, plasma), the “ADN (adiponectin)” value is reported as 16 ± 2.3***^/£££ μg/ml. Also, in experiment [1] (DKO mice, 12 weeks treatment, fasting insulin × fasting glucose / 22.5), the HOMA-IR was 16 ± 11 ^. In addition, in experiment [2], the “Cox4i1 gene expression in aorta” value is 2.20 ± 0.64***^/$$/££. The “Cox1 gene expression in aorta” value in experiment [3] is recorded as 1.16 ± 0.40***^/$/£££. Besides, the “Tfam gene expression in aorta” value in experiment [4] is 1.57 ± 0.50***^/$/££.

With `CC(C)OC(=O)C(C)(C)Oc1ccc(C(=O)c2ccc(Cl)cc2)cc1` [Fenofibrate], the “AUC of IPGTT” value in experiment [1] (DKO mice, 12 weeks treatment, intraperitoneal glucose tolerance test, glucose 2 g/kg) is on record as 75 ± 15 ×10^3.
